This note sets out measurements from patent US20210253562A1, “ACYLSUFONAMIDE COMPOUNDS USEFUL AS EP3 RECEPTOR ANTAGONISTS” (Janssen Pharmaceutica NV, priority 2018, published 2021).

Assay [1] concerns the target T1, EP3 membrane (EP3 receptor) (Homo sapiens, UniProt P43115).
T1 construct: purchased Millipore HTS092M
T1 sequence (P43115 1-390): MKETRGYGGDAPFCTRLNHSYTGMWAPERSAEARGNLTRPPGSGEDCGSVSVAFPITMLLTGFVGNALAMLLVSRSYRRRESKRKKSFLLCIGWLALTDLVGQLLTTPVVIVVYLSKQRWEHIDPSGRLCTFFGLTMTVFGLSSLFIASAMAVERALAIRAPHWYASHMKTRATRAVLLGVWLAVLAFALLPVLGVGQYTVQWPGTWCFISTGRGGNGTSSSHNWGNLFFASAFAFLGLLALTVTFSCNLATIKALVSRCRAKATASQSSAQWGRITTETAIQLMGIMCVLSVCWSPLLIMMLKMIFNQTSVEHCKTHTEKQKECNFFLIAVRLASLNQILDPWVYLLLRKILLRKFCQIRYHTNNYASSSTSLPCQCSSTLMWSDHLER
As to the kind of experiment: [3H]-PGE2 binding; EP3 competition binding (SPA). The gist of the method:
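SPA competition at room temperature, 2 h: EP3 membranes 2 μg/well, 2 nM [3H]-PGE2, 0.1% DMSO, in Tris/MgCl2/EDTA buffer pH 7.4. Compounds in 1:3 serial dilution; scintillation read; Ki by one-site nonlinear fit.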

In assay [2] the target is T2, CHO cells over-expressing the EP3 receptor (Homo sapiens, UniProt P43115).
T2 construct: expressed in transfected cells; host or cells: CHO cells
T2 sequence (P43115 1-390): T1 sequence (P43115 1-390)
As to the kind of experiment: CHO cell cAMP assay; EP3 cAMP antagonist dose response (sulprostone reference), HTRF. The settings on record: sulprostone 700 nM (EC80) and FSK 2 μM (EC70); read-out: CHO_cAMP IC50. The class given is cell-based. The gist of the method:
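EP3-overexpressing CHO cells pre-incubated with test compound, then stimulated 30 min at 37 °C with FSK (2 μM, EC70) plus sulprostone (700 nM, EC80); antagonism seen as restored cAMP. cAMP measured by HTRF 665/615 ratio, converted via on-plate standard curve. IC50 from Hill fit of 11-point dosing.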
(In general: Cyclic AMP is a second messenger, typically raised through Gs and lowered through Gi signalling.)

A further assay has as its system male Sprague Dawley rats. The assay is described as follows: IV infused EP3 antagonists on circulating insulin and glucose in the sulprostone infusion IVGTT model. The format is in vivo, rat. Particulars: SD rats, 2.1 mg/kg bolus followed by 3.09 mg/kg/hour infusion. From the text:
Biological Example 3: IV Infused EP3 Antagonists on Circulating Insulin and Glucose in the Sulprostone Infusion IVGTT Model
Jugular vein and carotid artery cannulated male Sprague Dawley rats (˜250 g, available from Charles River) were housed one rat per suspended cage in a temperature-controlled room with 12-hour light/dark cycle. The rats were allowed ad libitum access to water and maintained on a regular diet. Animals were acclimated for minimum 5 days prior to the start of the experiment. Experimental procedures were carried out in accordance with institutional standards for animal care and were approved by the institute's animal care and use committee.
A blood sample for insulin and blood chemistry was collected at 20 min (t=−20) prior to the start of dosing with sulprostone and/or test compound (EP3 antagonist). […]
Blood samples from all animals were collected into Heparin treated tubes. Background was measured via a glucometer at the 0 and 2 min time points to ensure that the animal received the glucose bolus. Plasma insulin was measured via a Meso Scale Discovery metabolic assay (available from Meso Scale). Plasma glucose, free fatty acid (FFA), triglycerides, cholesterol and ketones were measured on an OLYMPUS AU400E chemistry analyzer. Observations on animal health were recorded throughout the procedure. […]

The term Ki denotes a measure of affinity in units of concentration, obtained from inhibition or displacement. Read a high Ki as a looser hold on the target. As usually defined, the IC50 is the concentration that inhibits the measured activity by half. In assay [1], `O=C(NC/C=C1\CCCc2cnn(Cc3ccc(Cl)cc3Cl)c21)NS(=O)(=O)c1ccc(Cl)cc1` [Compound #4, (E)-4-chloro-N-((2-(1-(2,4-dichlorobenzyl)-1,4,5,6-tetrahydro-7H-indazol-7-ylidene)ethyl)carbamoyl)benzenesulfonamide] returned a Ki of 4 nM. In assay [2], the IC50 amounted to 12 nM. In addition, the “suppression of glucose stimulated insulin secretion (GSIS) by sulprostone” value in the assay on male Sprague Dawley rats was “reverse suppression of glucose stimulated insulin secretion (GSIS) by sulprostone”.
`O=C(NC/C(F)=C1/CCCc2cnn(-c3ccc4ccccc4c3)c21)NS(=O)(=O)c1ccc2c(c1)OCCO2` [Compound #110, (E)-N-((2-fluoro-2-(1-(naphthalen-2-yl)-1,4,5,6-tetrahydro-7H-indazol-7-ylidene)ethyl)carbamoyl)-2,3-dihydrobenzo[b][1,4]dioxine-6-sulfonamide]: the Ki in assay [1] is above 10000 nM. Moreover, the IC50 in assay [2] is above 20000 nM.
Compound `COc1ccc(Cn2ncc3c2/C(=C(\F)CNC(=O)NS(=O)(=O)c2cc(Cl)c(Cl)s2)CCC3)cn1` [Compound #141, (Z)-4,5-dichloro-N-((2-fluoro-2-(1-((6-methoxypyridin-3-yl)methyl)-1,4,5,6-tetrahydro-7H-indazol-7-ylidene)ethyl)carbamoyl)thiophene-2-sulfonamide] had a Ki in assay [1] of 215 nM. For the same compound, the IC50 in assay [2] was 750 nM.
In assay [1], `O=C(NC/C(F)=C1\COCc2cnn(Cc3ccc(Cl)cc3Cl)c21)NS(=O)(=O)c1cc(Cl)c(Cl)s1` [Compound #54, (E)-4,5-dichloro-N-((2-(1-(2,4-dichlorobenzyl)-1,4-dihydropyrano[4,3-c]pyrazol-7(6H)-ylidene)-2-fluoroethyl)carbamoyl)thiophene-2-sulfonamide] gave a Ki of 3 nM. Also, the IC50 in assay [2] is 24 nM.
For the compound `O=C(NS(=O)(=O)c1cc(Cl)c(Cl)s1)OC/C(F)=C1/CCCc2cnn(Cc3ccc(Cl)cc3Cl)c21` [Compound #35, (E)-2-(1-(2,4-dichlorobenzyl)-1,4,5,6-tetrahydro-7H-indazol-7-ylidene)-2-fluoroethyl ((4,5-dichlorothiophen-2-yl)sulfonyl)carbamate], in assay [1], the affinity corresponds to a Ki of 542 nM. Besides, the IC50 in assay [2] is 2800 nM.
`O=C(NC/C(F)=C1\CCCc2cnn(-c3ccc(C(F)(F)F)cc3)c21)NS(=O)(=O)c1cc(Cl)c(Cl)s1` [Compound #125, (Z)-4,5-dichloro-N-((2-fluoro-2-(1-(4-(trifluoromethyl)phenyl)-1,4,5,6-tetrahydro-7H-indazol-7-ylidene)ethyl)carbamoyl)thiophene-2-sulfonamide] had a Ki in assay [1] of 3 nM. The half-inhibitory concentration (IC50) in assay [2] was found to be 20 nM.
`O=C(NC/C=C1\CCCc2cnn(Cc3ccc(Cl)cc3Cl)c21)NS(=O)(=O)c1nc2ccccc2s1` [Compound #15, (E)-N-((2-(1-(2,4-dichlorobenzyl)-1,4,5,6-tetrahydro-7H-indazol-7-ylidene)ethyl)carbamoyl)benzo[d]thiazole-2-sulfonamide] showed a Ki in assay [1] of 1 nM. In addition, the half-maximal inhibitory concentration (IC50) in assay [2] stood at 5 nM.
With `O=C(NC/C(F)=C1\CCCc2onc(Cc3ccc(Cl)cc3Cl)c21)NS(=O)(=O)c1cc(Cl)c(Cl)s1` [Compound #127, (Z)-4,5-dichloro-N-((2-(3-(2,4-dichlorobenzyl)-6,7-dihydrobenzo[d]isoxazol-4(5H)-ylidene)-2-fluoroethyl)carbamoyl)thiophene-2-sulfonamide], in assay [1], the inhibition constant Ki came to 1 nM. In addition, the half-inhibitory concentration (IC50) in assay [2] worked out at 8 nM.
For `O=C(NS(=O)(=O)c1ccc(Cl)cc1)OC/C=C1/c2c(cnn2Cc2ccc(Cl)cc2Cl)CCC1(F)F` [Compound #82, (Z)-2-(1-(2,4-dichlorobenzyl)-6,6-difluoro-1,4,5,6-tetrahydro-7H-indazol-7-ylidene)ethyl ((4-chlorophenyl)sulfonyl)carbamate], in assay [1], the Ki was found to be 106 nM. Besides, in assay [2], the IC50 worked out at 2600 nM.
`O=C(NC/C(F)=C1\CCCn2nnc(Cc3ccccc3)c21)NS(=O)(=O)c1cc(Cl)c(Cl)s1` [Compound #129, (Z)—N-((2-(3-benzyl-6,7-dihydro-[1,2,3]triazolo[1,5-a]pyridin-4(5H)-ylidene)-2-fluoroethyl)carbamoyl)-4,5-dichlorothiophene-2-sulfonamide] displayed a Ki in assay [1] of 29 nM. For the same compound, the IC50 in assay [2] came to 548 nM.
The compound `O=C(NC/C(F)=C1\COCc2cnn(-c3ccc(C(F)(F)F)cc3)c21)NS(=O)(=O)c1ccc(Cl)cc1` [Compound #118, (E)-4-chloro-N-((2-fluoro-2-(1-(4-(trifluoromethyl)phenyl)-1,4-dihydropyrano[4,3-c]pyrazol-7(6H)-ylidene)ethyl)carbamoyl)benzenesulfonamide] returned a Ki in assay [1] of 2000 nM. In addition, the IC50 in assay [2] was 16000 nM.
Turning to `O=C(NS(=O)(=O)c1ccc(Cl)cc1)OC/C=C1/c2c(cnn2Cc2ccc(Cl)cc2Cl)CCC1F` (stereo not shown) [Compound #50, (Z)-2-(1-(2,4-dichlorobenzyl)-6-fluoro-1,4,5,6-tetrahydro-7H-indazol-7-ylidene)ethyl ((4-chlorophenyl)sulfonyl)carbamate], the affinity in assay [1] corresponds to a Ki of 29 nM. Besides, the IC50 in assay [2] was 75 nM.
